Patent US12491182B2, “Polymorphs of triazole antifungal compound PC945” (Pulmocide Limited, priority 2019, dated 2025)
Values joined by “and” are separate entries in the source; they are usually repeats but may differ in a detail not shown here. Equal values may be shown once.

Columns and labels:
[1] = Comparative pharmacokinetic profiling of Forms 1 and 2 by inhalation administration to rats; assay type: in vivo, male RccHan:WIST rat; conditions: for Drug Concentration in Animal by No. (plasma): individual animals
Excerpt: A study was undertaken to compare the time-course of unchanged drug concentrations in plasma following a single inhalation dose of either Form 1 or Form 2 in rats.
The male RccHan™:WIST rat was considered a suitable species and strain because of its acceptance by regulatory agencies. The inhalation route of administration was chosen to simulate the conditions of clinical administration. A total of 14 of animals (six animals per group with two spare animals), 10 to 12 weeks of age and weighing 306 to 341 g at the start of drug treatment, were used in the study. Treatment consisted of a single 2 hour inhalation exposure with a nebulised formulation of either micronised Form 1 (98.94% purity) to Group 1 animals or micronised Form 2 (98.10% purity) to Group 2 animals. The pharmacokinetic parameters of the two polymorphic forms were determined to support pharmacology and toxicology studies in animals and clinical studies in man.
Suspensions were manufactured by first preparing a concentrated solution of the surfactants (wetting solution) and a saline solution. These were then used to make the vehicle. A saline solution was prepared as follows. Sodium chloride (50 g) was weighed into a 5000 mL volumetric flask, made up to volume with water, stirred with a magnetic stirrer for 10 min and then passed through a 0.22 μm membrane filter. Wetting solution was prepared as follows. Lipoid S100 (10 g) was weighed into a 2000 mL Duran bottle, 1000 g of propylene glycol was added and the mixture was stirred on a Silverson mixer equipped with a 1″ high shear screen for 1 min at 8000 rpm and then passed through a 0.22 μm membrane filter. Vehicle was prepared as follows. The wetting solution (500 mL) was transferred into a 5000 mL volumetric flask, made to volume with saline solution, stirred with a magnetic stirrer for 10 min and then passed through a 0.22 μm membrane filter.
A 1000 mL batch of 4 mg/mL suspension of Compound I was prepared as follows. Compound I (4.00 g) was weighed into a small beaker, 100 mL of wetting solution was added and the mixture was stirred with a Silverson mixer equipped with a 1″ high shear screen for 5 min at 8000 rpm. The mixture was then transferred into a 5000 mL Duran bottle using saline solution and stirred using a Silverson mixer equipped with a 1″ high shear screen for 5 min at 8000 rpm, after which it was stored between 2 and 8° C. Higher or lower strength suspensions (range 0.2 to 20 mg/mL) were prepared by adjusting the input weight of API as appropriate for higher mg/mL suspensions or by further diluting with vehicle for lower mg/mL suspensions. All formulations were magnetically stirred for at least 30 min, and assessed visually prior to administration.
Rats were acclimatised to the inhalation dosing procedure for three consecutive days prior to dosing. Animals were treated with the test substance by aerosol inhalation administration for 120 min via snout only exposure, at a target aerosol concentration of 25.2 μg/L. The estimations of inhaled dose from an exposure duration of 2 hr and an assumed body weight of 300 g were calculated using the formula:
[formula] where: C is the aerosol concentration (μg/L); RMV is the respiratory minute volume (L/min); D is the duration of exposure (120 mins) and BW is the group mean body weight (kg). The mean achieved aerosol concentrations, estimated inhaled dose and particle size distribution (PSD) summary data are presented below. (Table 14).
Venous blood samples (0.3 mL) were taken from the tail vein of animals and samples collected after dosing (2 hr from the start of dose administration) and thereafter at times 3, 4, 6, 8, 12, 24, 28, 32, 36 and 48 hr following treatment. Samples were treated with K2EDTA anticoagulant, spun at 2000 g for 10 min at 4° C. and then stored frozen (−20° C.±10) whilst awaiting analysis. Plasma samples were subsequently analysed for Compound I by LGC using a validated LC-MS/MS method. […]

[2] = Thermo-gravimetric analysis (degradation onset); assay type: physicochemical; conditions: sample prepared from toluene
Protocol: TGA data were collected on a TA Instrument Q500 TGA, equipped with a 16 position auto-sampler. The instrument was temperature calibrated using certified Alumel and Nickel. Typically 5-10 mg of sample was loaded onto a pre-tared aluminium DSC pan and heated at 10° C./min from ambient temperature to 350° C. A nitrogen purge at 60 mL/min was maintained over the sample. The instrument control software was Advantage for Q Series v2.5.0.256 and Thermal Advantage v5.5.3 and the data were analysed using Universal Analysis v4.5A.
TGA profiling was carried out according to methods described above and was used to determine the amount of residual solvents associated with the polymorphs of Compound I. In addition, it was used to measure the quantity of solvent released on heating from the solvated forms of Compound I. Typical residual solvent levels found in samples of the polymorphs of Compound I are as follows.

Question: Which results are given for `Cc1cc(N2CCN(c3ccc(C(=O)Nc4ccc(F)cc4)cc3)CC2)ccc1OC[C@@H]1CO[C@@](Cn2cncn2)(c2ccc(F)cc2F)C1` [Form 1, 4-(4-(4-(((3R,5R)-5-((1H-1,2,4-triazol-1-yl)methyl)-5-(2,4-difluorophenyl)tetrahydrofuran-3-yl)methoxy)-3-methylphenyl)piperazin-1-yl)-N-(4-fluorophenyl)benzamide]?
Answer: Tmax ([1]; RccHan:WIST, rat, plasma, inhaled or intranasal, male rats, single 2 hr inhalation, nominal dose 2.2 mg/kg, from start of exposure, read-out: Tmax): 6 h; Drug Concentration in Animal by No. (plasma) ([1]; male rats, inhalation, nominal 2.2 mg/kg, 3 hr from start of exposure): 5.31 ng/mL and 4.35 ng/mL and 2.41 ng/mL; Drug Concentration in Animal by No. (plasma) ([1]; male rats, inhalation, nominal 2.2 mg/kg, 4 hr from start of exposure): 4.73 ng/mL and 6.32 ng/mL and 3.78 ng/mL; Drug Concentration in Animal by No. (plasma) ([1]; male rats, inhalation, nominal 2.2 mg/kg, 6 hr from start of exposure): 5.38 ng/mL and 3.97 ng/mL and 5.49 ng/mL; Drug Concentration in Animal by No. (plasma) ([1]; male rats, inhalation, nominal 2.2 mg/kg, 8 hr from start of exposure): 3.28 ng/mL and 2.88 ng/mL; Drug Concentration Mean (plasma) ([1]; male rats, inhalation, nominal 2.2 mg/kg, 8 hr, group mean): 3.08 ng/mL; Drug Concentration in Animal by No. (plasma) ([1]; male rats, inhalation, nominal 2.2 mg/kg, 12 hr from start of exposure): 4.05 ng/mL and 3.64 ng/mL; Drug Concentration in Animal by No. (plasma) ([1]; male rats, inhalation, nominal 2.2 mg/kg, 24 hr from start of exposure): 2.47 ng/mL and 3.00 ng/mL and 3.85 ng/mL and 2.75 ng/mL and 2.02 ng/mL and 3.03 ng/mL; Drug Concentration in Animal by No. (plasma) ([1]; male rats, inhalation, nominal 2.2 mg/kg, 28 hr from start of exposure): 1.85 ng/mL and 2.22 ng/mL and 3.92 ng/mL and 1.87 ng/mL and 2.04 ng/mL; Drug Concentration in Animal by No. (plasma) ([1]; male rats, inhalation, nominal 2.2 mg/kg, 32 hr from start of exposure): 1.36 ng/mL and 1.85 ng/mL and 2.79 ng/mL and 1.66 ng/mL and 2.20 ng/mL and 1.32 ng/mL; Drug Concentration Mean (plasma) ([1]; male rats, inhalation, nominal 2.2 mg/kg, 32 hr, group mean): 1.86 ng/mL; Drug Concentration in Animal by No. (plasma) ([1]; male rats, inhalation, nominal 2.2 mg/kg, 36 hr from start of exposure): 1.21 ng/mL and 1.36 ng/mL and 1.74 ng/mL and 1.70 ng/mL and 1.01 ng/mL and 1.80 ng/mL; Drug Concentration Mean (plasma) ([1]; male rats, inhalation, nominal 2.2 mg/kg, 36 hr, group mean): 1.47 ng/mL; Drug Concentration in Animal by No. (plasma) ([1]; male rats, inhalation, nominal 2.2 mg/kg, 48 hr from start of exposure): 1.10 ng/mL and 1.45 ng/mL and 1.28 ng/mL and 1.26 ng/mL and 1.19 ng/mL; Drug Concentration Mean (plasma) ([1]; male rats, inhalation, nominal 2.2 mg/kg, IAD (immediately after dosing), group mean): 1.11 ng/mL; Drug Concentration in Animal by No. (plasma) ([1]; male rats, inhalation, nominal 2.2 mg/kg, IAD (immediately after dosing)): 1.16 ng/mL and 0.826 ng/mL and 1.35 ng/mL; AUCt dose normalised ([1]; male rats, inhalation, AUCt of Form 2 normalised to dose achieved for Form 1 (2.48 mg/kg), 2.48 mg/kg): 122 ng·h/mL; time up to which plasma concentrations remained quantifiable ([1]; male rats, inhalation, after the start of exposure (last sampling time)): 48 h; Cmax ([1]; male, RccHan:WIST, rat, plasma, inhaled or intranasal, 2.2 mg/kg, single 2 hr inhalation of nebulised aqueous suspension, nominal dose 2.2 mg/kg, read-out: Cmax (maximum mean plasma concentration)): 4.95 ng/mL; AUC(0-t) ([1]; male, RccHan:WIST, rat, plasma, inhaled or intranasal, 2.2 mg/kg, single 2 hr inhalation, nominal dose 2.2 mg/kg, 0-48 hr): 122 ng·h/mL; concentration at 3 h ([1]; male, RccHan:WIST, rat, plasma, inhaled, 2.2 mg/kg, inhalation, nominal 2.2 mg/kg, 3 hr, group mean, read-out: Drug Concentration Mean (plasma)): 4.02 ng/mL; concentration at 4 h ([1]; male, RccHan:WIST, rat, plasma, inhaled, 2.2 mg/kg, inhalation, nominal 2.2 mg/kg, 4 hr, group mean, read-out: Drug Concentration Mean (plasma)): 4.94 ng/mL; concentration at 6 h ([1]; male, RccHan:WIST, rat, plasma, inhaled, 2.2 mg/kg, inhalation, nominal 2.2 mg/kg, 6 hr, group mean, read-out: Drug Concentration Mean (plasma)): 4.95 ng/mL; concentration at 12 h ([1]; male, RccHan:WIST, rat, plasma, inhaled, 2.2 mg/kg, inhalation, nominal 2.2 mg/kg, 12 hr, group mean, read-out: Drug Concentration Mean (plasma)): 3.85 ng/mL; concentration at 24 h ([1]; male, RccHan:WIST, rat, plasma, inhaled, 2.2 mg/kg, inhalation, nominal 2.2 mg/kg, 24 hr, group mean, read-out: Drug Concentration Mean (plasma)): 2.85 ng/mL; concentration at 28 h ([1]; male, RccHan:WIST, rat, plasma, inhaled, 2.2 mg/kg, inhalation, nominal 2.2 mg/kg, 28 hr, group mean, read-out: Drug Concentration Mean (plasma)): 2.38 ng/mL; concentration at 48 h ([1]; male, RccHan:WIST, rat, plasma, inhaled, 2.2 mg/kg, inhalation, nominal 2.2 mg/kg, 48 hr, group mean, read-out: Drug Concentration Mean (plasma)): 1.26 ng/mL; temperature from which degradation was evident (TGA) [2]: 320 °C
